Assay results: patent publication US10556883B2, “Benzenesulfonamide compounds, method for synthesizing same, and use thereof in medicine and cosmetics” (GALDERMA RESEARCH & DEVELOPMENT, priority 2016, dated 2020)
pIC50: −log10 of the molar value.

System: TNFα secretion from LPS stimulated frozen Peripheral Blood Mononuclear Cells (PBMC)
Test: inhibition of TNFα secretion from LPS stimulated human PBMC (hPBMC assay)
Type: cell-based
Details: LPS 1 μg/mL, overnight incubation, TNFα by HTRF
Procedure: Activity of the compounds was investigated using human peripheral blood mononuclear cells (hPBMC). This assay was designed to measure the inhibition of the TNFα secretion from LPS stimulated frozen Peripheral Blood Mononuclear Cells (PBMC) isolated from human blood. TNFα levels were measured using HTRF® Human TNFα kit (Cisbio #62TNFPEC) which is a rapid and quantitative sandwich immunoassay based on TR-FRET technology.
Frozen PBMC were quickly thawed, resuspended in culture medium (RPMI 10% inactivated FBS) and viable cells were seeded in 96-well plates (50,000 cells/well). […] After overnight incubation at 37° C., 10 μL of cell supernatant were mixed with 5 μL of each tagged anti-TNFα specific antibody as recommended by the supplier. After 2 hours of incubation at room temperature, the HTRF® signals were measured using a microplate reader (wavelengths: excitation=337 nm, first emission=620 nm, second emission=665 nm).

| Structure (SMILES) | pIC50 |
| --- | --- |
| Cc1cc(COc2ccc(S(=O)(=O)NC3(C(=O)NO)CN(C(=O)OC(C)(C)C)C3)cc2)c2ccccc2n1 [Example 14, Tert-butyl 3-(hydroxycarbamoyl)-3-((4-((2-methylquinolin-4-yl)methoxy)phenyl)sulfonamido)azetidine-1-carboxylate] | > 7.30 |
| CC(=O)N1CC(CC(=O)NO)(NS(=O)(=O)c2ccc(OCc3cc(C)nc4c(C)cccc34)cc2)C1 [Example 24, 2-(1-acetyl-3-((4-((2,8-dimethylquinolin-4-yl)methoxy)phenyl)sulfonamido)azetidin-3-yl)-N-hydroxyacetamide] | > 7.30 |
| CCCCC(=O)N1CC(NS(=O)(=O)c2ccc(OCc3cc(C)nc4ccccc34)cc2)(C(=O)NO)C1 [Example 7i, N-hydroxy-3-((4-((2-methylquinolin-4-yl)methoxy)phenyl)sulfonamido)-1-pentanoylazetidine-3-carboxamide] | > 7.30 |
| CO[C@H]1C[C@@H](C(=O)N2CC(NS(=O)(=O)c3ccc(OCc4cc(C)nc5ccccc45)cc3)(C(=O)NO)C2)C1 [Example 26b, N-hydroxy-1-((1s,3s)-3-methoxycyclobutane-1-carbonyl)-3-((4-((2-methylquinolin-4-yl)methoxy)phenyl)sulfonamido)azetidine-3-carboxamide] | > 7.30 |
| Cc1cc(COc2ccc(S(=O)(=O)NC3(CC(=O)NO)CN(C(=O)C(C)(C)C)C3)cc2)c2ccccc2n1 [Example 4d, N-hydroxy-2-(3-((4-((2-methylquinolin-4-yl)methoxy)phenyl)sulfonamido)-1-pivaloylazetidin-3-yl)acetamide] | > 7.30 |
| CC(=O)N1CC(CC(=O)NO)(N(C)S(=O)(=O)c2ccc(OCc3cc(C)nc4ccccc34)cc2)C1 [Example 3, 2-(1-acetyl-3-((N-methyl-4-((2-methylquinolin-4-yl)methoxy)phenyl)sulfonamido)azetidin-3-yl)-N-hydroxyacetamide] | 6.00 to 6.30 |
| CCOC(=O)N1CC(CC(=O)NO)(NS(=O)(=O)c2ccc(OCc3cc(C)nc4ccccc34)cc2)C1 [Example 5a, Ethyl 3-(2-(hydroxyamino)-2-oxoethyl)-3-((4-((2-methylquinolin-4-yl)methoxy)phenyl)sulfonamido)azetidine-1-carboxylate] | > 7.30 |
| Cc1cc(COc2ccc(S(=O)(=O)N(C)C3(C(=O)NO)CN(C(=O)OC(C)(C)C)C3)cc2)c2ccccc2n1 [Example 20, Tert-butyl 3-(hydroxycarbamoyl)-3-((N-methyl-4-((2-methylquinolin-4-yl)methoxy)phenyl)sulfonamido)azetidine-1-carboxylate] | > 7.30 |
| Cc1cc(COc2ccc(S(=O)(=O)NC3(C(=O)NO)CN(C(=O)C4CCOCC4)C3)cc2)c2ccccc2n1 [Example 7d, N-hydroxy-3-((4-((2-methylquinolin-4-yl)methoxy)phenyl)sulfonamido)-1-(tetrahydro-2H-pyran-4-carbonyl)azetidine-3-carboxamide] | > 7.30 |
| CCN(C1(C(=O)NO)CN(C(=O)C2CCOCC2)C1)S(=O)(=O)c1ccc(OCc2cc(C)nc3ccccc23)cc1 [Example 21b, 3-((N-ethyl-4-((2-methylquinolin-4-yl)methoxy)phenyl)sulfonamido)-N-hydroxy-1-(tetrahydro-2H-pyran-4-carbonyl)azetidine-3-carboxamide] | 7.00 to 7.30 |
| Cc1cc(COc2ccc(S(=O)(=O)NC3(C(=O)NO)CN(C(=O)CC4CC4)C3)cc2)c2ccccc2n1 [Example 26c, 1-(2-cyclopropylacetyl)-N-hydroxy-3-((4-((2-methylquinolin-4-yl)methoxy)phenyl)sulfonamido)azetidine-3-carboxamide] | > 7.30 |
| COCCN(C1(C(=O)NO)CN(C(=O)C(C)C)C1)S(=O)(=O)c1ccc(OCc2cc(C)nc3ccccc23)cc1 [Example 22, N-hydroxy-1-isobutyryl-3-((N-(2-methoxyethyl)-4-((2-methylquinolin-4-yl)methoxy)phenyl)sulfonamido)azetidine-3-carboxamide] | > 7.30 |
| Cc1cc(COc2ccc(S(=O)(=O)N(C)C3(C(=O)NO)CN(C(=O)C(C)C)C3)cc2)c2ccccc2n1 [Example 19a, N-hydroxy-1-isobutyryl-3-((N-methyl-4-((2-methylquinolin-4-yl)methoxy)phenyl)sulfonamido)azetidine-3-carboxamide] | > 7.30 |
| Cc1cc(COc2ccc(S(=O)(=O)N(C)C3(C(=O)NO)CN(C(=O)C4CCOCC4)C3)cc2)c2ccccc2n1 [Example 19c, N-hydroxy-3-((N-methyl-4-((2-methylquinolin-4-yl)methoxy)phenyl)sulfonamido)-1-(tetrahydro-2H-pyran-4-carbonyl)azetidine-3-carboxamide] | > 7.30 |
| Cc1cc(COc2ccc(S(=O)(=O)NC3(CC(=O)NO)CN(C(=O)OC(C)C)C3)cc2)c2ccccc2n1 [Example 5d, isopropyl 3-(2-(hydroxyamino)-2-oxoethyl)-3-((4-((2-methylquinolin-4-yl)methoxy)phenyl)sulfonamido)azetidine-1-carboxylate] | > 7.30 |
| Cc1cc(COc2ccc(S(=O)(=O)NC3(CC(=O)NO)CN(C(=O)N4CCCCC4)C3)cc2)c2ccccc2n1 [Example 9, N-hydroxy-2-(3-((4-((2-methylquinolin-4-yl)methoxy)phenyl)sulfonamido)-1-(piperidine-1-carbonyl)azetidin-3-yl)acetamide] | > 7.30 |
| COCC(=O)N1CC(CC(=O)NO)(NS(=O)(=O)c2ccc(OCc3cc(C)nc4ccccc34)cc2)C1 [Example 4f, N-hydroxy-2-(1-(2-methoxyacetyl)-3-((4-((2-methylquinolin-4-yl)methoxy)phenyl)sulfonamido)azetidin-3-yl)acetamide] | > 7.30 |
| Cc1cc(COc2ccc(S(=O)(=O)NC3(C(=O)NO)CN(C(=O)N4CCOCC4)C3)cc2)c2ccccc2n1 [Example 16b, N-hydroxy-3-((4-((2-methylquinolin-4-yl)methoxy)phenyl)sulfonamido)-1-(morpholine-4-carbonyl)azetidine-3-carboxamide] | > 7.30 |
| Cc1cc(COc2ccc(S(=O)(=O)NC3(CC(=O)NO)CN(C(=O)N4CCOCC4)C3)cc2)c2ccccc2n1 [Example 25, N-hydroxy-2-(3-((4-((2-methylquinolin-4-yl)methoxy)phenyl)sulfonamido)-1-(morpholine-4-carbonyl)azetidin-3-yl)acetamide] | > 7.30 |
| Cc1cc(COc2ccc(S(=O)(=O)NC3(CC(=O)NO)CN(C(=O)C4CCCCC4)C3)cc2)c2ccccc2n1 [Example 4j, 2-(1-(cyclohexanecarbonyl)-3-((4-((2-methylquinolin-4-yl)methoxy)phenyl)sulfonamido)azetidin-3-yl)-N-hydroxyacetamide] | > 7.30 |
| Cc1cc(COc2ccc(S(=O)(=O)NC3(C(=O)NO)CN(C(=O)N4CCCCC4)C3)cc2)c2ccccc2n1 [Example 16a, N-hydroxy-3-((4-((2-methylquinolin-4-yl)methoxy)phenyl)sulfonamido)-1-(piperidine-1-carbonyl)azetidine-3-carboxamide] | 7.00 to 7.30 |
| Cc1cc(COc2ccc(S(=O)(=O)NC3(C(=O)NO)CN(C(=O)C4CC(F)(F)C4)C3)cc2)c2ccccc2n1 [Example 26e, 1-(3,3-difluorocyclobutane-1-carbonyl)-N-hydroxy-3-((4-((2-methylquinolin-4-yl)methoxy)phenyl)sulfonamido)azetidine-3-carboxamide] | > 7.30 |
